Data as given in ChEMBL document CHEMBL4177523, “Ser422 phosphorylation blocks human Tau cleavage by caspase-3: Biochemical implications to Alzheimer's Disease” (Bioorg Med Chem Lett, 2017).
Activity calls are given as the source filed them. The rule behind the calls is not given here. Square brackets hold non-standard residues; d marks the D form. Peptide text beside a SMILES is read from it. ξ: configuration not given here. ξpS = NC(COP(=O)(O)O)C(=O)O

How the values were obtained:
Caspase-3 (Homo sapiens) [1] = biological target: T1, Caspase-3 (Homo sapiens) (UniProt P42574); experiment: Substrate activity at recombinant human caspase-3 assessed as enzyme-mediated compound cleavage after 1 hr by RP-HPLC analysis
T1 sequence (whole entry): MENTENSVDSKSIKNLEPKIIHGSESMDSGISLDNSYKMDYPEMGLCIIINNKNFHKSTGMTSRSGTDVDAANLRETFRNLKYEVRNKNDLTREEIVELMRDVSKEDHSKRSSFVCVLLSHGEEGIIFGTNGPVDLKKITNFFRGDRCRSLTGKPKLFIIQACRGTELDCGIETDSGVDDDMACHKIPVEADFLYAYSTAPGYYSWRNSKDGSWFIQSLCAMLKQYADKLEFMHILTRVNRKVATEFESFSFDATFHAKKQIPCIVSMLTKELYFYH

Caspase-3 (Homo sapiens) [2] = biological target: T1, Caspase-3 (Homo sapiens); experiment: Inhibition of recombinant human caspase-3 at 50 uM using fluorogenic peptide substrate Ac-DEVD-MCA after 30 mins incubation by spectrofluorometric method
[3] = Retention time of the compound by mass spectrometric analysis; assay type: physicochemical
Caspase-3 (Homo sapiens) [4] = biological target: T1, Caspase-3 (Homo sapiens); experiment: Substrate activity at recombinant human caspase-3 assessed as Ac-STGSIDMVD-OH formation after 1 hr by RP-HPLC analysis
Caspase-3 (Homo sapiens) [5] = biological target: T1, Caspase-3 (Homo sapiens); experiment: Substrate activity at recombinant human caspase-3 assessed as Ac-STGSIDMVD-OH formation after 1 hr by MALDI-TOF/MS analysis
Caspase-3 (Homo sapiens) [6] = biological target: T1, Caspase-3 (Homo sapiens); experiment: Substrate activity at recombinant human caspase-3 assessed as SPQL-CONH2 formation after 1 hr by RP-HPLC analysis
Caspase-3 (Homo sapiens) [7] = biological target: T1, Caspase-3 (Homo sapiens); experiment: Substrate activity at recombinant human caspase-3 assessed as SPQLAT-CONH2 formation after 1 hr by RP-HPLC analysis
Caspase-3 (Homo sapiens) [8] = biological target: T1, Caspase-3 (Homo sapiens); experiment: Substrate activity at recombinant human caspase-3 assessed as SPQLAT-CONH2 formation after 1 hr by MALDI-TOF/MS analysis
Caspase-3 (Homo sapiens) [9] = biological target: T1, Caspase-3 (Homo sapiens); experiment: Substrate activity at recombinant human caspase-3 assessed as SIDMVD formation after 1 hr by RP-HPLC analysis
Caspase-3 (Homo sapiens) [10] = biological target: T1, Caspase-3 (Homo sapiens); experiment: Substrate activity at recombinant human caspase-3 assessed as SIDMVD formation after 1 hr by MALDI-TOF/MS analysis
Caspase-3 (Homo sapiens) [11] = biological target: T1, Caspase-3 (Homo sapiens); experiment: Substrate activity at 3-fold excess recombinant human caspase-3 assessed as SIDMVD formation by RP-HPLC analysis; conditions: TDE = time-dependent effect
Caspase-3 (Homo sapiens) [12] = biological target: T1, Caspase-3 (Homo sapiens); experiment: Substrate activity at 3-fold excess recombinant human caspase-3 assessed as SPQLAT formation by RP-HPLC analysis; conditions: TDE = time-dependent effect
Caspase-3 (Homo sapiens) [13] = biological target: T1, Caspase-3 (Homo sapiens); experiment: Substrate activity at recombinant human caspase-3 assessed as enzyme-mediated compound cleavage after 1 hr in presence of casapase-3 inhibitor Ac-DQVD-aldehyde by RP-HPLC analysis

Row | Activity (Caspase-3 (Homo sapiens) [1]) | Retention_time [3] [min] | further results | Compound
1 | Active |  |  | CC[C@H](C)[C@H](NC(=O)[C@H](CO)NC(=O)CNC(=O)[C@@H](NC(=O)[C@H](CO)NC(C)=O)[C@@H](C)O)C(=O)N[C@@H](CC(=O)O)C(=O)N[C@@H](CCSC)C(=O)N[C@H](C(=O)N[C@@H](CC(=O)O)C(=O)N[C@H](CO)C(=O)N1CCC[C@H]1C(=O)N[C@@H](CCC(N)=O)C(=O)N[C@@H](CC(C)C)C(=O)N[C@@H](C)C(N)=O)C(C)C
2 | inactive |  |  | CC[C@H](C)[C@H](NC(=O)[C@H](CO)NC(=O)CNC(=O)[C@@H](NC(=O)[C@H](CO)NC(C)=O)[C@@H](C)O)C(=O)N[C@@H](CC(=O)O)C(=O)N[C@@H](CCSC)C(=O)N[C@H](C(=O)N[C@H](CC(=O)O)C(=O)N[C@@H](CO)C(=O)N1CCC[C@H]1C(=O)N[C@@H](CCC(N)=O)C(=O)N[C@@H](CC(C)C)C(=O)N[C@@H](C)C(N)=O)C(C)C
3 |  |  | inhibition (Caspase-3 (Homo sapiens) [2]): 97.3% | CC(=O)N[C@@H](CC(=O)O)C(=O)N[C@@H](CCC(N)=O)C(=O)N[C@H](C(=O)N[C@H](C=O)CC(=O)O)C(C)C (Ac-DQVD-aldehyde)
4 |  | 30.6 |  | CC[C@H](C)[C@H](NC(=O)[C@H](CO)NC(=O)CNC(=O)[C@@H](NC(=O)[C@H](CO)NC(C)=O)[C@@H](C)O)C(=O)N[C@@H](CC(=O)O)C(=O)N[C@@H](CCSC)C(=O)N[C@H](C(=O)N[C@@H](CC(=O)O)C(=O)O)C(C)C (Ac-STGSIDMVD-OH)
5 |  | 31.8 | Activity (Caspase-3 (Homo sapiens) [4]): Active; Activity (Caspase-3 (Homo sapiens) [5]): Active; Activity (Caspase-3 (Homo sapiens) [6]): Active | CC[C@H](C)[C@H](NC(=O)[C@H](CO)NC(=O)CNC(=O)[C@@H](NC(=O)[C@H](CO)NC(C)=O)[C@@H](C)O)C(=O)N[C@@H](CC(=O)O)C(=O)N[C@@H](CCSC)C(=O)N[C@H](C(=O)N[C@@H](CC(=O)O)C(=O)N[C@@H](CO)C(=O)N1CCC[C@H]1C(=O)N[C@@H](CCC(N)=O)C(=O)N[C@@H](CC(C)C)C(N)=O)C(C)C (Ac-STGSIDMVDSPQL-NH2)
6 | inactive |  |  | CC[C@H](C)[C@H](NC(=O)[C@H](CO)NC(=O)CNC(=O)[C@@H](NC(=O)[C@H](CO)NC(C)=O)[C@@H](C)O)C(=O)N[C@@H](CC(=O)O)C(=O)N[C@@H](CCSC)C(=O)N[C@H](C(=O)N[C@@H](CC(=O)O)C(=O)NC(COP(=O)(O)O)C(=O)N1CCC[C@H]1C(=O)N[C@@H](CCC(N)=O)C(=O)N[C@@H](CC(C)C)C(=O)N[C@@H](C)C(N)=O)C(C)C (some centres not stated) (Ac-STGSIDMVD[ξpS]PQLA-NH2)
7 |  | 18.1 |  | CC[C@H](C)[C@H](NC(=O)[C@@H](N)CO)C(=O)N[C@@H](CC(=O)O)C(=O)N[C@@H](CCSC)C(=O)N[C@H](C(=O)N[C@@H](CC(=O)O)C(=O)O)C(C)C (H-SIDMVD-OH)
8 |  | 27.9 | Activity (Caspase-3 (Homo sapiens) [7]): Active; Activity (Caspase-3 (Homo sapiens) [8]): Active; Activity (Caspase-3 (Homo sapiens) [9]): Active; Activity (Caspase-3 (Homo sapiens) [10]): Active; Activity (Caspase-3 (Homo sapiens) [11]): Tde; Activity (Caspase-3 (Homo sapiens) [12]): Tde; Activity (Caspase-3 (Homo sapiens) [13]): inactive | CC[C@H](C)[C@H](NC(=O)[C@@H](N)CO)C(=O)N[C@@H](CC(=O)O)C(=O)N[C@@H](CCSC)C(=O)N[C@H](C(=O)N[C@@H](CC(=O)O)C(=O)N[C@@H](CO)C(=O)N1CCC[C@H]1C(=O)N[C@@H](CCC(N)=O)C(=O)N[C@@H](CC(C)C)C(=O)N[C@@H](C)C(=O)N[C@H](C(N)=O)[C@@H](C)O)C(C)C (H-SIDMVDSPQLAT-NH2)
9 | inactive | 26.3 |  | CC[C@H](C)[C@H](NC(=O)[C@@H](N)CO)C(=O)N[C@@H](CC(=O)O)C(=O)N[C@@H](CCSC)C(=O)N[C@H](C(=O)N[C@@H](CC(=O)O)C(=O)NC(COP(=O)(O)O)C(=O)N1CCC[C@H]1C(=O)N[C@@H](CCC(N)=O)C(=O)N[C@@H](CC(C)C)C(=O)N[C@@H](C)C(=O)N[C@H](C(N)=O)[C@@H](C)O)C(C)C (some centres not stated) (H-SIDMVD[ξpS]PQLAT-NH2)
10 |  | 19.5 |  | CC(C)C[C@H](NC(=O)[C@H](CCC(N)=O)NC(=O)[C@@H]1CCCN1C(=O)[C@@H](N)CO)C(N)=O (H-SPQL-NH2)
11 |  | 25.7 |  | CC(C)C[C@H](NC(=O)[C@H](CCC(N)=O)NC(=O)[C@@H]1CCCN1C(=O)[C@@H](N)CO)C(=O)N[C@@H](C)C(=O)N[C@H](C(N)=O)[C@@H](C)O (H-SPQLAT-NH2)
